Measurements published in ChEMBL document CHEMBL1151125, “Constituents of Michelia Rajaniana. Two new germacranolide amides” (1988).

Assays:
Type in all cases: functional
Conditions in all cases: read-out: ED50 (the source's name)
[1] = tested on: HT-29; assay: Cytotoxicity against human HT-29 cells
[2] = tested on: A549; assay: Cytotoxicity against human A549 cells
[3] = tested on: MCF7; assay: Cytotoxicity against human MCF7 cells

Measured: EC50

CC(=O)NC[C@@H]1C(=O)O[C@H]2[C@H]1[C@@H](O)C/C(C)=C/CC[C@@]1(C)O[C@@H]21
> 100 µg/mL: all assays above

CC(=O)NC[C@@H]1C(=O)O[C@H]2[C@H]1CC/C(C)=C/CC[C@@]1(C)O[C@@H]21
> 100 µg/mL: all assays above
